Reference: patent US9587220B2, “Method for inducing cardiac differentiation of pluripotent stem cell” (Kyoto University, priority 2012, dated 2017)
“And” between values parts separate entries of the source, which are not always exact repeats. Equal entries are not always repeated.

Experiments:
Assay type in all cases: cell-based, human
[1] = tested on: hESC lines (KhES-1, KhES-3), monkey ESC line (CMK6.4), mouse ESC line (R1), hiPSC lines (IMR90-1, IMR90-4, 253G1, RCHIPC0003); experiment: Beating cardiac colony ratio in a variety of PSC lines treated with KY02111 (serum-containing medium); conditions: KY02111 treatment, FIG. 1e
Method: All PSC lines were maintained on mitomycin C-treated mouse embryonic fibroblasts (MEF), in Primate ES Cell Culture Medium (ReproCELL Inc., Japan), with 5 ng ml^−1 bFGF for hPSCs, and without bFGF for monkey ESCs. Human ESC lines were KhES-1, KhES-3, H1, and H9 (Non-patent literatures 1, 41). Human iPSC lines were 253G1, IMR90-1, IMR90-4 (Non-patent literatures 42, 43), and RCHIPC0003. RCHIPC0003 was established from human fibroblasts by ReproCELL. The monkey ESC line was CMK6.4 (Non-patent literatures 1, 44, 45). The hESC line was used in conformity with the Guidelines for Derivation and Utilization of Human Embryonic Stem Cells of the Ministry of Education, Culture, Sports, Science, and Technology of Japan.
Confluent hESCs and hiPSCs were gently detached with CTK solution and transferred into Petri dishes (BD Biosciences) with Primate ES Cell Culture Medium (ReproCELL, Japan). Cells were held in suspension culture for 8-24 h to form aggregates. The sizes of hPSC aggregates (0.3-1 mm in diameter) are important for efficient differentiation. […] Beating colonies were counted on Day 9.

[2] = tested on: IMR90-1 hiPSCs; experiment: Immunostaining of cardiac, pacemaker and fibroblast markers in differentiated hiPSCs
Method: Confluent hESCs and hiPSCs were gently detached with CTK solution and transferred into Petri dishes (BD Biosciences) with Primate ES Cell Culture Medium (ReproCELL, Japan). Cells were held in suspension culture for 8-24 h to form aggregates. The sizes of hPSC aggregates (0.3-1 mm in diameter) are important for efficient differentiation. Following suspension culture, cell aggregates were attached to culture dishes (3-10×10^5 cells cm^−2) in cardiac differentiation medium: IMDM (Sigma), containing 20% FBS (Gibco), 1% MEM non-essential amino acid solution (Sigma), 1% Penicillin-Streptomycin (Gibco), 2 mM L-glutamine (Sigma), 0.001% 2-Mercaptoethanol (Gibco), and 0.005N NaOH, with 10 ng ml^−1 BMP4 (R&D Systems). The medium was changed to cardiac differentiation medium with 10 μM KY02111 and/or other WNT inhibitors added on Day 3 (hiPSC lines) or Day 4 (human or monkey ESC lines); XAV939 (Wako, Japan), IWP-2 (Santa Cruz Biotechnology), IWR-1 (Merck4Bioscience), IGFBP4 (R&D Systems), Dkk1 (R&D Systems) and the mixture of bFGF (R&D Systems), BMP4 (R&D Systems), VEGF (R&D Systems), DKK1 (R&D Systems), and Activin A (R&D Systems) (Non-patent literature 16). Medium was changed every 2-3 d. KY02111 and other WNT inhibitors were added until Day 9 for hiPSC lines and the monkey ESC line, or Day 14 for hESC lines. On Day 15, cardiac cell colonies on dishes were incubated with protease solution (0.1% collagenase type I, 0.25% trypsin, 1 U ml^−1 DNase I, 116 mM NaCl, 20 mM HEPES, 12.5 mM NaH2PO4, 5.6 mM glucose, 5.4 mM KCl, and 0.8 mM MgSO4, pH 7.35) for 0.5-2 h, until all cardiac colonies were detached from the bottom of the wells. The detached cardiac colonies were transferred into 15 ml tubes with fresh cardiac differentiation medium and precipitated by gravity, and the supernatant was removed by aspiration. The cardiac colonies were then transferred into Ultra-low culture dishes (Corning, 3261) or 6-well plates (Corning, YO-01835-24) in cardiac differentiation medium without both serum and NaOH. The floating cardiac colonies were maintained for more than 1 month, and the media were changed every 5 d. A differentiation method of mouse ESC (R1 line) was carried out as previously described^46, and KY02111 was added during Days 3-6. Beating colonies were counted on Day 9.
Cardiac colonies were dissociated by stirring for 1-2 h at 37° C. with the protease solution described above, cultured for 1 d on cover glasses coated with gelatin (Sigma), and fixed with 4% paraformaldehyde. After permeabilizing with Triton X, the cells were treated with 2% skim milk for 1-2 h, then incubated with primary antibodies for 2 h: NKX2.5 (rabbit polyclonal, 1:250; Abcam), αActinin (mouse monoclonal, 1:800; Sigma), cardiac TnT (mouse monoclonal, 1:100; Santa Cruz Biotechnology), Vimentin (mouse monoclonal, 1:800; Sigma V6630), and HCN4 (mouse monoclonal, 1:400; Abcam). The secondary antibodies used were Alexa546-conjugated anti-mouse IgG, Alexa488-conjugated anti-mouse IgG, and Alexa488-conjugated anti-rabbit IgG (1:1000; all from Molecular Probes, Invitrogen). Nuclei were visualized by DAPI. Images were captured under fluorescent microscopy (Olympus). The number of cTnT, αActinin, NKX2.5, HCN4, and Vimentin-positive cells were counted from three random areas, using the Metamorph imaging system (Molecular Devices). […] Cells were analyzed using a FACS CantoII flow cytometer (BD Biosciences). Data was analyzed using FACADiva software (BD Biosciences).

[3] = tested on: IMR90-1 hiPSCs; experiment: Number of beating colonies and total number of cardiomyocytes per well (WNT inhibitor combinations); conditions: total cell number x cTnT-positive ratio, FIG. 3e

Question: With COc1ccc(CCC(=O)Nc2nc3ccc(Cl)cc3s2)cc1OC [KY02111, 2-(3-(3,4-dimethoxyphenyl)propanamide)-6-chlorobenzothiazole] as the compound, how does the “ratio of beating colonies per all of colonies on culture dish” value [1] read?
Answer: The value was 60-94% and 70-90%.

Question: And the “SMA (smooth muscle marker) expression” value ([2]; data not shown)?
Answer: Its value is “almost undetectable”.

Question: What about the Vimentin-positive ratio ([2]; serum-containing medium) of the same compound?
Answer: Its Vimentin-positive ratio is 20%.

Question: And the “cells positive for pacemaker marker HCN4” value ([2]; serum-containing medium)?
Answer: The value was 16%.

Question: And the cTnT-positive cells ([2]; serum-containing medium, FIG. 10b)?
Answer: The cTnT-positive cells was “approximately 80%”.

Question: And the “decrease of ratio of Vimentin-positive cells (fibroblasts)” value ([2]; versus DMSO)?
Answer: The value was 3.3 fold.

Question: And the “number of cardiomyocytes produced relative to the control” value [3]?
Answer: Its value is 80 fold.
